These results are taken from patent publication US7514094B2, “Pesticidal composition” (Ishihara Sangyo Kaisha, Ltd., priority 2000, dated 2009).

Common to all, as to format: in vivo
Test [1] deals with Thrips palmi. As to the kind of experiment: Insecticidal test of Thrips palmi (test in a vinyl house). Particulars: 288 h. The method, then:
Insecticidal test of Thrips palmi (test in a vinyl house)
An agrochemical liquid diluted to a predetermined concentration was applied by a shoulder sprayer on a 6 to 8 foliate eggplant having Thrips palmi parasitic thereon in an amount of 100 l per 10 are. The numbers of the parasitic insects were counted before treatment and 12 days after the treatment, and a Percent Control was calculated in the same manner as in Test Example 1, and the results are shown in the following Table 4.
Also, a theoretical value of the Percent Control […] calculated in accordance with the Colby formula in the same manner as in Test Example 2 are shown in parenthesis in the following Table 4.

For test [2], the system named is Thrips palmi. As to the kind of experiment: Insecticidal test (2) of Thrips palmi on potted eggplant, spray. Particulars: Compound No. 1 0 ppm, 7 days after treatment. The method, then:
Insecticidal test on (2) of Thrips palmi
An agrochemical liquid diluted to a predetermined concentration was applied by a spray gun to a 10 to 12 folite eggplant having Thrips palmi parasitic thereon in a pot so as to make the eggplant fully wet with the agrochemical liquid and the pot was placed in a greenhouse.
The numbers of the parasitic insects were counted […] before treatment and 7 days after the treatment, and a Percent Control was calculated in the same manner as in Test Example 1, and the results are shown in the following Table 2.
Also, a theoretical mortality value (%) was calculated in accordance with the following Colby formula. When value of the Percent Control is higher than the theoretical value of the Percent Control (in accordance with the Colby formula), it is considered that the pesticidal composition of the present invention achieves a synergistic pesticidal effect. The theoretical values of the Percent Control calculated in accordance with the Colby formula are shown in parentheses in the following Table 2. Theoretical value of the Percent Control=100−(X×Y)/100 • X: 100−(Percent Control in case of treating with Compound No. 1 only) • Y: 100−(Percent Control in case of treating with Chlorfluazuron only)

Test [3] has as its system Western Flower Thrips Frankliniella occidentalis. As to the kind of experiment: Insecticidal test of Western Flower Thrips on potted eggplant, spray. To be noted: 48 h. From the text:
Insecticidal test of Western Flower Thrips Frankliniella occidentalis
An agrochemical liquid diluted to a predetermined concentration was applied by a spray gun to a 10 to 12 foliate eggplant having Western Flower Thrips Frankliniella occidentalis parasitic thereon in a pot so as to make the eggplant fully wet with the agrochemical liquid, and the pot was placed in a greenhouse. The numbers of the parasitic insects were counted before treatment and 2 days after the treatment, and a Percent Control was calculated in the same manner as in Test Example 1.
Also, a theoretical value of the Percent Control was calculated in accordance with the Colby formula in the same manner as in Test Example 1 and the results are shown in parenthesis in the following Table 3.

The test system of test [4] is Thrips palmi. Nature of the test: Insecticidal test (1) of Thrips palmi on potted eggplant, spray. To be noted: Compound No. 1 0 ppm, 3 days after treatment. The method, then:
Insecticidal test (1) of Thrips palmi
An agrochemical liquid diluted to a predetermined concentration was applied by a spray gun to a 10 to 12-foliate eggplant having Thrips palmi parasitic thereon in a pot so as to make the eggplant fully wet with the agrochemical liquid and the pot was placed in a greenhouse. The numbers of the parasitic insects were counted before treatment and three days after the treatment, and a Percent Control was calculated in accordance with the following formula and the results are shown in the following Table 1. Percent Control=100−((Ta×Cb)/(Tb×Ca)×100) • Ta: Number of insects per treated plants after treatment • Tb: Number of insects per treated plants before treatment • Ca: Number of insects per untreated plants after treatment • Cb: Number of insects per untreated plants before treatment
Also, a theoretical value of the Percent Control was calculated in accordance with the following Colby formula.
When value of the Percent Control is higher than the theoretical value (%) (in accordance with the Colby formula), it is considered that the pesticidal composition of the present invention achieves a synergistic pesticidal effect. The theoretical values of the Percent Control calculated in accordance with the Colby formula are shown in parentheses in the following Table 1. […]

As for `O=C(NC(=O)c1c(F)cccc1F)Nc1cc(Cl)c(Oc2ncc(C(F)(F)F)cc2Cl)c(Cl)c1` [Chlorfluazuron (E-2), Chlorfluazuron], the mortality (commonly the share of the test organisms that died) at 25 ppm in the test with Thrips palmi [1] was found to be 58%. Further, the “Percent Control” value with Thrips palmi [2] (Chlorfluazuron 12.5 ppm) was 55%; in the test on Thrips palmi [2] (Chlorfluazuron 25 ppm) it was 52%.
On to `O=C(NC(=O)c1c(F)cccc1F)Nc1ccc(Oc2ccc(C(F)(F)F)cc2Cl)cc1F` [Flufenoxuron (E-4), Flufenoxuron], for which, in test [3], the mortality at 25 ppm stood at 31%. Moreover, the entries for the “Percent Control” value in the test with Thrips palmi [4] (Flufenoxuron 12.5 ppm) and with Thrips palmi [4] (Flufenoxuron 25 ppm) were 70% and 67%, respectively.
